Several values for one entry are separate records, joined by “and”; a condition that tells them apart may be missing. Equal values may be shown once.
System: HEK293 cells
Assay: Endogenous ceramide, HexCer and SM levels in cells treated 24 h, targeted LC-MS/MS
Assay type: cell-based
Set-up: Cer 18:1/24:0 content in HEK293 cells / Cer 18:1/24:1 content in HEK293 cells / HexCer 18:1/16:0 content in HEK293 cells / HexCer 18:1/18:0 content in HEK293 cells / HexCer 18:1/20:0 content in HEK293 cells / HexCer 18:1/22:0 content in HEK293 cells / Cer 18:1/16:0 content in HEK293 cells / Cer 18:1/18:0 content in HEK293 cells / Cer 18:1/20:0 content in HEK293 cells / Cer 18:1/22:0 content in HEK293 cells: unit not given here
Settings: replicates, raw data Suppl Fig 1
Description: Lipids were then extracted using MTBE/methanol/water as described above.
HEK293 cell culture experiment: Levels of each lipid in P053-treated HEK293 cells were normalised to the mean of the vehicle control group, and each concentration was compared to the control using ANOVA with Dunnett’s post-test. P values were adjusted for multiple comparisons in GraphPad PRISM.
Supplementary Figure 1. Ceramide, SM, and HexCer levels in HEK293 cells treated with
P053. Absolute lipid levels were determined by targeted LC-MS/MS, relative to external
standard curves. Results are mean ± SEM (n = 4) from one of two identical experiments.
Statistically significant results, based on two independent experiments, are as indicated in
Figure 2b-d. Raw data for these figures is provided in Supplementary Data File 1.

C[C@@](N)(CO)CCc1ccc(OCc2ccc(Cl)c(Cl)c2)cc1 [P053, (S)-2-amino-4-(4-(3,4-dichlorobenzyloxy)phenyl)-2-methylbutan-1-ol]
Cer 18:1/24:0 content in HEK293 cells (P053 10 nM): 78.2507 and 97.4893 and 100.975 and 120.086 | Cer 18:1/24:1 content in HEK293 cells (P053 10 nM): 41.2869 and 36.9476 and 41.283 and 38.2211 | HexCer 18:1/16:0 content in HEK293 cells (P053 10 nM): 30.7043 and 33.6425 and 33.4465 and 30.9255 | HexCer 18:1/18:0 content in HEK293 cells (P053 10 nM): 4.5494 and 4.09 and 4.473 and 4.32 | HexCer 18:1/20:0 content in HEK293 cells (P053 10 nM): 0.3088 and 0.3692 and 0.4154 and 0.4356 | HexCer 18:1/22:0 content in HEK293 cells (P053 10 nM): 36.8189 and 34.9551 and 38.6561 and 38.9837 | HexCer 18:1/24:0 content in HEK293 cells (P053 10 nM): 199.303 and 216.657 and 249.013 and 199.834 | HexCer 18:1/24:1 content in HEK293 cells (P053 10 nM): 70.2405 and 72.3688 and 73.5755 and 68.734 | SM 32:1 content in HEK293 cells (P053 10 nM): 35.2485 and 30.6751 and 30.1932 and 30.0675 | SM 34:1 content in HEK293 cells (P053 10 nM): 296.401 and 243.663 and 224.502 and 225.737 | SM 34:2 content in HEK293 cells (P053 10 nM): 47.2234 and 40.324 and 36.1571 and 38.6716 | SM 36:1 content in HEK293 cells (P053 10 nM): 29.6301 and 20.7933 and 22.4748 and 21.0053 | SM 36:2 content in HEK293 cells (P053 10 nM): 11.2341 and 9.942 and 8.241 and 8.207 | SM 38:1 content in HEK293 cells (P053 10 nM): 6.182 and 8.401 and 6.6333 and 8.787 | SM 40:1 content in HEK293 cells (P053 10 nM): 40.0944 and 41.0366 and 34.4775 and 35.2843 | SM 40:2 content in HEK293 cells (P053 10 nM): 10.3276 and 10.9643 and 10.3385 and 8.643 | SM 42:1 content in HEK293 cells (P053 10 nM): 68.7535 and 68.4711 and 69.6713 and 77.5442 | SM 42:2 content in HEK293 cells (P053 10 nM): 119.092 and 115.121 and 104.672 and 105.467 | Cer 18:1/16:0 content in HEK293 cells (P053 30 nM): 19.0547 and 20.8444 and 18.7423 and 20.5749 | Cer 18:1/18:0 content in HEK293 cells (P053 30 nM): 5.081 and 5.075 and 4.316 and 4.99 | Cer 18:1/20:0 content in HEK293 cells (P053 30 nM): 0.7183 and 0.7479 and 0.6521 and 0.6855 | Cer 18:1/22:0 content in HEK293 cells (P053 30 nM): 57.3121 and 66.2959 and 65.6669 and 64.5364 | Cer 18:1/24:0 content in HEK293 cells (P053 30 nM): 85.8777 and 134.225 and 118.415 and 97.9167 | Cer 18:1/24:1 content in HEK293 cells (P053 30 nM): 37.3744 and 44.4522 and 42.1609 and 41.0899 | HexCer 18:1/16:0 content in HEK293 cells (P053 30 nM): 29.7152 and 31.7982 and 33.8438 and 30.9723 | HexCer 18:1/18:0 content in HEK293 cells (P053 30 nM): 3.0394 and 3.951 and 4.099 and 3.127 | HexCer 18:1/20:0 content in HEK293 cells (P053 30 nM): 0.3329 and 0.4128 and 0.4628 and 0.5232 | HexCer 18:1/22:0 content in HEK293 cells (P053 30 nM): 32.4873 and 39.9972 and 37.7095 and 34.9843 | HexCer 18:1/24:0 content in HEK293 cells (P053 30 nM): 190.472 and 249.822 and 223.238 and 200.878 | HexCer 18:1/24:1 content in HEK293 cells (P053 30 nM): 66.6616 and 76.2502 and 69.0398 and 65.5993 | SM 32:1 content in HEK293 cells (P053 30 nM): 30.2036 and 32.0092 and 28.7617 and 34.5111 | SM 34:1 content in HEK293 cells (P053 30 nM): 248.003 and 262.537 and 249.572 and 281.872 | SM 34:2 content in HEK293 cells (P053 30 nM): 41.231 and 41.1196 and 40.1333 and 43.2759 | SM 36:1 content in HEK293 cells (P053 30 nM): 22.0304 and 22.5253 and 18.9401 and 24.6728 | SM 36:2 content in HEK293 cells (P053 30 nM): 9.089 and 8.502 and 8.127 and 10.0466 | SM 38:1 content in HEK293 cells (P053 30 nM): 14.9847 and 8.56 and 5.18 and 11.7454 | SM 40:1 content in HEK293 cells (P053 30 nM): 39.8982 and 44.3327 and 34.2754 and 42.2123 | SM 40:2 content in HEK293 cells (P053 30 nM): 9.856 and 9.764 and 9.362 and 10.5652 | SM 42:1 content in HEK293 cells (P053 30 nM): 69.7563 and 80.9547 and 78.46 and 71.8434 | SM 42:2 content in HEK293 cells (P053 30 nM): 104.731 and 121.981 and 114.303 and 118.688 | Cer 18:1/16:0 content in HEK293 cells (P053 100 nM): 22.9494 and 19.2357 and 22.5073 and 19.0496 | Cer 18:1/18:0 content in HEK293 cells (P053 100 nM): 2.972 and 3.68 and 3.21 and 2.092 | Cer 18:1/20:0 content in HEK293 cells (P053 100 nM): 0.613 and 0.738 and 0.687 and 0.5601 | Cer 18:1/22:0 content in HEK293 cells (P053 100 nM): 66.0373 and 65.445 and 75.6523 and 61.1907 | Cer 18:1/24:0 content in HEK293 cells (P053 100 nM): 95.8984 and 114.847 and 144.796 and 106.353 | Cer 18:1/24:1 content in HEK293 cells (P053 100 nM): 43.7952 and 41.4019 and 48.5214 and 41.0347 | HexCer 18:1/16:0 content in HEK293 cells (P053 100 nM): 28.7244 and 29.2314 and 27.3495 and 32.1782 | HexCer 18:1/18:0 content in HEK293 cells (P053 100 nM): 1.552 and 2.033 and 2.382 and 2.572 | HexCer 18:1/20:0 content in HEK293 cells (P053 100 nM): 0.3018 and 0.2953 and 0.2763 and 0.1537 | HexCer 18:1/22:0 content in HEK293 cells (P053 100 nM): 35.0199 and 40.376 and 33.9893 and 41.9484 | HexCer 18:1/24:0 content in HEK293 cells (P053 100 nM): 193.278 and 206.781 and 205.001 and 225.138 | HexCer 18:1/24:1 content in HEK293 cells (P053 100 nM): 66.6213 and 67.2246 and 64.4273 and 72.2662 | SM 32:1 content in HEK293 cells (P053 100 nM): 33.5311 and 33.1495 and 31.0137 and 33.9978 | SM 34:1 content in HEK293 cells (P053 100 nM): 239.205 and 244.554 and 241.828 and 261.421 | SM 34:2 content in HEK293 cells (P053 100 nM): 40.9604 and 43.1506 and 39.5005 and 44.6858 | SM 36:1 content in HEK293 cells (P053 100 nM): 15.6181 and 17.1499 and 17.2078 and 18.9256 | SM 36:2 content in HEK293 cells (P053 100 nM): 6.971 and 7.206 and 7.1332 and 7.405 | SM 38:1 content in HEK293 cells (P053 100 nM): 4.352 and 7.605 and 11.0645 and 10.3031 | SM 40:1 content in HEK293 cells (P053 100 nM): 39.6185 and 38.4983 and 41.6326 and 45.0957 | SM 40:2 content in HEK293 cells (P053 100 nM): 10.6428 and 11.1113 and 10.5382 and 10.6417 | SM 42:1 content in HEK293 cells (P053 100 nM): 70.6629 and 69.6062 and 82.0245 and 85.9318 | SM 42:2 content in HEK293 cells (P053 100 nM): 112.606 and 107.685 and 114.026 and 114.211 | Cer 18:1/16:0 content in HEK293 cells (P053 300 nM): 17.822 and 19.0766 and 17.3933 | Cer 18:1/18:0 content in HEK293 cells (P053 300 nM): 1.8912 and 1.699 and 1.376 | Cer 18:1/20:0 content in HEK293 cells (P053 300 nM): 0.7162 and 0.4601 and 0.6576 | Cer 18:1/22:0 content in HEK293 cells (P053 300 nM): 64.624 and 69.7847 and 70.6121 | Cer 18:1/24:0 content in HEK293 cells (P053 300 nM): 94.7176 and 106.124 and 124.497 | Cer 18:1/24:1 content in HEK293 cells (P053 300 nM): 42.6517 and 39.4375 and 41.6471 | HexCer 18:1/16:0 content in HEK293 cells (P053 300 nM): 26.9367 and 27.3197 and 28.9409 | HexCer 18:1/18:0 content in HEK293 cells (P053 300 nM): 1.661 and 1.355 and 1.491 | HexCer 18:1/20:0 content in HEK293 cells (P053 300 nM): 0.2792 and 0.518 and 0.2446 | HexCer 18:1/22:0 content in HEK293 cells (P053 300 nM): 43.5691 and 40.2015 and 45.0568 | HexCer 18:1/24:0 content in HEK293 cells (P053 300 nM): 220.79 and 197.985 and 254.871 | HexCer 18:1/24:1 content in HEK293 cells (P053 300 nM): 63.1626 and 68.7371 and 74.9033 | SM 32:1 content in HEK293 cells (P053 300 nM): 31.4532 and 33.3582 and 37.098 | SM 34:1 content in HEK293 cells (P053 300 nM): 241.436 and 241.197 and 248.392 | SM 34:2 content in HEK293 cells (P053 300 nM): 42.0268 and 43.5268 and 45.2968 | SM 36:1 content in HEK293 cells (P053 300 nM): 14.7086 and 14.6722 and 17.3205 | SM 36:2 content in HEK293 cells (P053 300 nM): 6.184 and 6.8179 and 6.541 | SM 38:1 content in HEK293 cells (P053 300 nM): 9.78 and 11.6533 and 8.0822 | SM 40:1 content in HEK293 cells (P053 300 nM): 43.4372 and 43.0067 and 50.439 | SM 40:2 content in HEK293 cells (P053 300 nM): 12.0217 and 11.0813 and 11.4772 | SM 42:1 content in HEK293 cells (P053 300 nM): 70.0557 and 70.3641 and 94.669 | SM 42:2 content in HEK293 cells (P053 300 nM): 117.582 and 110.303 and 130.267

— publication PMC6104039 (Nature Communications, 2018)
